# According to patent US10011813B2, “Methane oxidation methods and compositions” (California Institute of Technology, priority 2015, dated 2018):
# “And” between values parts separate entries of the source, which are not always exact repeats. Equal values may be shown once.
# Test system: methane seep sediment (ANME archaea)
# Experiment: AOM rate measurement via 13C-methane (newly formed DIC) in methane seep sediment incubations
# Type: cell-based, ANME-2a and ANME-2c
# Conditions: for Rate relative to AOM with sulfate: 10 mM; for DIC formed: after 21-day incubation
# Description: General description of methane oxidation measurements via ^13C-methane. Methane oxidation was quantified by determining the production of inorganic carbon (“CO2”). Accurate quantification of the concentration of inorganic carbon formed from methane oxidation is challenging due to 4 main reasons:
# A defined amount of added DIC in artificial, buffered seawater was used with a low calcium concentration to prevent carbonate precipitation (see medium composition). As ^13CH4 was the only ^13C-enriched carbon source added, the newly formed ^13C-DIC must be derived from methane. For low methane oxidation rates (less than ca. 5% relative to sulfate as the oxidant or electron acceptor), however, enzyme-catalyzed isotope exchange between methane and DIC, needs to be taken into account, because it contributes to ^13C enrichment of the DIC without net methane oxidation, resulting in an overestimation of net methane oxidation. […] Details of both methods, the ^13CH4 experiments and the standard addition are described herein.
# Incubation conditions for AOM rate measurement. Each incubation vial was set up with 1.0 cm^3 wet sediment (wet sediment=volume of sediment after allowing the sediment slurry settle for 48 h) in total slurry volume of […] as follows: Sterile serum vials were closed with butyl rubber stoppers (volume=12.9 ml after closing) and flushed with methane. 1.0 mL ^13CH4 (99% ^13C, Cambridge Isotope Laboratories, containing 0.05 vol % ^13CO2 as an impurity) was introduced anaerobically. 2.0 mL of artificial, anaerobic seawater containing 2.5× the target concentration of the corresponding electron acceptor was injected into the serum vial cooled on ice. For AQDS and 1,5-AQDS, this was a suspension corresponding to 25 mM (see TABLE 3).
# The 1 L pyrex bottle with the sediment in the sulfate-free medium (1 part wet sediment in 3 parts of slurry volume) was vigorously shaken each time and 3.0 mL of slurry immediately removed and injected into the individual serum bottles. Each stoppered serum vial was supplemented with unlabeled methane (0.250 MPa overpressure: pressure gauge SSI Technologies, Inc., Media Gauge™) shaken and stored inverted at 4° C. (final headspace: 0.35 MPa methane, with ca. 4% ^13CH4). The exact fractional abundance of ^13C in the methane was quantified via ^1H-NMR spectroscopy for individual incubations.
# AOM rate measurements (quantification of newly formed DIC based on ^13CH4). For ^13C-DIC analysis, 0.25 mL of the medium above the settled sediment in the microcosm was sampled with a disposable needle and syringe at each time point (same intervals for all experiments) and centrifuged (16000 rcf, 5 min). The supernatant was transferred into 0.6 mL eppendorf tubes, flash frozen in N2 (l), and stored at −20° C. until measurement. 150 μL of the thawed supernatant was then added to He-flushed vials containing 100 μL H3PO4 (85%). The resulting CO2 was analyzed for the isotopic enrichment (^13F(tn)) on a GC-IR-MS GasBench II (Thermo Scientific). The amount of DIC newly formed (Δ[DIC](tn), see FIG. 6B) was calculated from the measured ^13F (fractional abundance of ^13C), neglecting isotope effects on AOM according to Equation (1): Δ[DIC](tn)=[DIC](t0)*(^13F(tn)−^13F(t0))/(^13F(CH4)−^13F(tn)) (EQ. 1)
compound,measurement,setting,value
"O=C1c2ccc(S(=O)(=O)O)cc2C(=O)c2ccc(S(=O)(=O)O)cc21 [AQDS, 9,10-anthraquinone-2,6-disulfonate]",Rate relative to AOM with sulfate,no MoO4^2−,74%
same,Rate relative to AOM with sulfate,with 25 mM MoO4^2−,83%
same,DIC formed from 13C-methane per vial,"50 mmol AQDS (10 mM), no sulfate, 21-day incubation at 4° C.",approximately 12.5 mmol
same,DIC formed,AQDS 10 mM + MoO4^2− 25 mM,2.59 mM and 2.82 mM
same,DIC formed,"AQDS 10 mM, 4° C.",2.39 mM and 2.64 mM
same,initial rates of AOM compared with sulfate,"first 6 days, 4° C.",equivalent
